Reference: patent publication US20120258076A1, “METHOD FOR CHARACTERIZING HOST IMMUNE FUNTION BY EX VIVO INDUCTION OF OFFENSIVE AND DEFENSIVE IMMUNE MARKERS” (HITACHI CHEMICAL RESEARCH CENTER, INC., priority 2009, published 2012)

System: heparinized whole blood
Assay: Drug screening: inhibitor preincubation of whole blood, then PBS or rIL-2 stimulation, mRNA quantification
Type: cell-based, human
From the text: Beta-actin expression served as a control for the expression assay. Offensive immune markers characterized included tumor necrosis factor superfamily (TNFSF) 1 (lymphotoxin), 2 (TNFα), 5 (CD40L), 6 (FasL), 8 (CD30L), 9 (CD137L), 14 (LIGHT), and 15 (TL1A). Chemokines characterized included CCL2, CCL3, CCL4, CCL8, CCL11, CCL20, CXCL1, CXCL2, CXCL3, CXCL10. Interleukins characterized include IL6, IL8, IL10, IL17, and IL23. Immune effectors characterized include GM-CSF, INFγ, CD16, Granzyme B, CD122, and TGFB-1. Markers of defensive immune function characterized include FoxP3, CTLA4, CD25, and GARP-1. Other offensive or defensive immune markers, as well as other chemokines, interleukins or effectors (among other immune-associated markers) can be tested in certain embodiments.
Shaded boxes represent a fold increase of greater than 2 as well as a statistical p value of <0.05. […] The various inhibitor compounds used to pre-treat the whole blood samples are listing on the x-axis. […] Thus, this compound has a potential to block or reduce the offensive immune response and may function as a pro-immunosuppressant compound. […] Thus, from this set of experiments, it is unclear if this particular Jak inhibitor is well-suited for promoting offensive or defensive immune responses. Further dose-response studies and/or studies with additional immune markers are necessary to elucidate the efficacy of this compound.
Embodiments of the methods described herein are also well suited to the characterization of various derivative or modified compounds, in that a single assay can generate side by side data comparing of a panel of putative derivative compounds. Moreover, based on the distinct features of the data described above, embodiments of the methods described herein are useful to detecting defensive-specific (i.e. pro-offensive) inhibitor compounds for use in clinical situations. Thus, this assay platform is useful for the analysis/screening of common and selective inhibitors for offensive and defensive immune functions.

Compound | induction of IFNγ in response to PBS or rIL-2 in presence of inhibitor (additional experiments, FIG. 4A-4B) | induction of TNFSF-1 in response to PBS or rIL-2 in presence of inhibitor (additional experiments, FIG. 4C-4D) | induction of CD25 in response to PBS or rIL-2 in presence of inhibitor (additional experiments, FIG. 4G-4H) | induction of FoxP3 in response to PBS or rIL-2 in presence of inhibitor (additional experiments, FIG. 4I-4J) | induction of TNFSF1 mRNA in response to rIL-2 in presence of inhibitor (inhibitor 10 mM, 1 hour preincubation, then rIL-2 100 ng/ml 4 hours, FIG. 3A) | induction of CD25 mRNA in response to rIL-2 in presence of inhibitor (inhibitor 10 mM, 1 hour preincubation, then rIL-2 100 ng/ml 4 hours, FIG. 3I) | induction of FoxP3 mRNA in response to rIL-2 in presence of inhibitor (inhibitor 10 mM, 1 hour preincubation, then rIL-2 100 ng/ml 4 hours, FIG. 3J)
O=C1Nc2ccccc2/C1=C1/Nc2ccccc2/C1=N\OCC(O)CO (stereo not shown) [E084] | specific inhibition | specific inhibition | induced | induced |  |  | 
CC(C)(C)c1nc2c3cc[nH]c(=O)c3c3cc(F)ccc3c2[nH]1 [Jak inhibitor] |  |  |  |  | no induction | blocks induction | blocks induction
